Like-named read-outs stand apart in the source and are kept apart here.
Legend:
[1] = tested on: WI-38 cells; experiment: Long-term effects on cell viability (5 days, ATP; morphology, PI imaging); type: cell-based; details: 10 μM; for Luminescence signal for ATP measurement, day-1 Average / Luminescence signal for ATP measurement, day-2 Average / Luminescence signal for ATP measurement, day-3 Average / Luminescence signal for ATP measurement, day-4 Average / Luminescence signal for ATP measurement, day-5 Average / viability at 10 µM: Batch 1; for Luminescence signal for ATP measurement, day-1 Average / Luminescence signal for ATP measurement, day-2 Average / Luminescence signal for ATP measurement, day-3 Average / Luminescence signal for ATP measurement, day-4 Average / Luminescence signal for ATP measurement, day-5 Average: n = 6, day-0 luminescence = 320956 ± 24708; for viability at 10 µM: Homo sapiens, WI-38, 120 h, DMSO ctrl = 100.0%, read-out: ATP luminescence by day-5 normalized; for Luminescence signal for ATP measurement, day-5 Average / viability at 10 µM: day-5; for O = Potential toxicity / Q = Potential toxicity: human, 5 days;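 on Luminescence signal for ATP measurement, day-2 Average: compounds at 10 µM with ATP read daily over 5 days of treatment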;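 on Luminescence signal for ATP measurement, day-3 Average: compounds at 10 µM with ATP read daily over 5 days of treatment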;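 on Luminescence signal for ATP measurement, day-4 Average: compounds at 10 µM with ATP read daily over 5 days of treatment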;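 on Luminescence signal for ATP measurement, day-5 Average: compounds at 10 µM with ATP read daily over 5 days of treatment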
Experimental: In addition, cell death was scored by PI-imaging on day 2 and day 5 of treatment.
Applicants introduced molecules (at 10 uM final concentration) to WI-38 fibroblasts and then assayed cell viability (through ATP measurement) everyday, during a course of 5 days of continuous treatment. […] Applicants also examined the morphology and scored cell death (propidium iodide staining) for cells treated with the above molecules. Of these 14 molecules, some appeared to cause cell toxicity. […] Despite the observed long-term toxicity, these molecules are still interesting as they may act as anti-tumor agents in vivo, should they have more pronounced cytotoxicity on highly proliferative tumor cells. When cells were incubated with these molecules for ˜24 hrs and then subject to hydrogen peroxide for 3 hrs, these molecules are all protective. […] Some of these small molecules may be toxic by themselves under certain conditions, but by inducing protective mechanisms, they may trigger “hormesis” and therefore protect cells from oxidative stress.

[2] = tested on: FOXO3; experiment: FOXO3 siRNA knockdown: dependency for H2O2-resistance; type: cell-based, human; details: for FOXO3-dependency for H2O2-resistance (experiment 3): with & without H2O2, FOXO3 knockdown in WI-38 cells
Experimental: For qPCR analysis, WI-38 cells were treated with small molecules (at 10 μM) (biological quadruplicates) for 24 hrs and processed for RNA isolation and reverse transcription (RT) with the Cells-to-Ct Kit (Life Technologies), following manufacturer's instructions. RT products were diluted with H2O and used for qPCR analysis on an ABI 7300 system (Life Technologies) (technical triplicates). Relative expression levels of target genes were normalized to the genes B2M, PPIA and GAPDH. To knock down the expression of FOXO3 or NRF2, WI-38 cells were transfected, using the RNAiMAX reagents (Life Technologies), with siRNA oligos (at 10 nM final concentration, 10 ml culture medium) for FOXO3 (Life Technologies) or NRF2 (Integrated DNA Technologies) on 10-cm petri dishes for 36 hrs, and then detached and aliquoted onto 96-well (for qPCR analysis) or 384-well plates (for H2O2-stress treatment). ˜24 hrs later, small molecules were introduced and incubated with cells for 24 hrs. Cells were then either processed with the Cells-to-Ct Kit to prepare RT products for qPCR analysis or subjected to H2O2 (700 μM) for 3 hrs and assayed for viability. The knockdown efficiency of FOXO3 or NRF2 was checked at 36 hrs post-transfection and at the end as well. […]
Applicants used siRNA to knock down FOXO3 expression by ˜70% in an attempt to identify whether the activation of these genes depends on activity of FOXO3 and/or NRF2. […] We used siRNA to knock down FOXO3 expression by ˜60% to 70% (FIG. 3; see data in Table 6). […] (Given the caveat that FOXO3 was not fully knocked down, partial dependency was scored when the H2O2-resistance capacity was reduced by at least 25% but less than 50% upon siRNA knockdown). At least for Gr-7A and Gr-7C, which are structurally related, the observed FOXO3-dependency for H2O2-resistance is consistent with their strong effects to induce FOXO3 target genes (Tables 1a-1f, Table 6, & Table 15), including SOD2 and GADD45A.

[3] = tested on: NRF2; experiment: qPCR analysis of NRF2-regulated genes; type: cell-based, human; details: for Potential NRF2 Activation (>=2 target genes induced, by >=1.5-fold): Assay 13(p); for fold induction at 10 µM: Homo sapiens
How it was run: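 Expression of HMOX1, NQO1, GCLC and GSTM1 measured by qPCR relative to B2M, PPIA and GAPDH. Cells were WI-38 fibroblasts exposed 24 hrs to 10 μM compound, with RNA and cDNA prepared via Cells-to-Ct. Where stated, cells were first transfected 36 hrs with FOXO3 or NRF2 siRNA at 10 nM.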

[4] = 10 uM, YES = resistance reduced by at least 50%, partial = 25% to 50%
[5] = 24 h, Assay 12(o), at 10 uM, qPCR, read-out: Induction of NRF2-regulated genes: GCLC normalized fold-change
[6] = 24 h, Assay 12(o), at 10 uM, qPCR, read-out: Induction of NRF2-regulated genes: GSTM1 normalized fold-change
[7] = 24 h, Assay 12(o), at 10 uM, qPCR, read-out: Induction of NRF2-regulated genes: HMOX1 normalized fold-change
[8] = rounded fold change, WI-38 cells, 10 μM, 24 hrs (RP11 for Gr-1D, RP29 for Gr-4D), read-out: Summary of effects on NRF2-regulated genes: HMOX1
[9] = rounded fold change, WI-38 cells, 10 μM, 24 hrs (RP29 for Gr-4D), read-out: Summary of effects on NRF2-regulated genes: GSTM1
[10] = rounded fold change, WI-38 cells, 10 μM, 24 hrs, read-out: Summary of effects on NRF2-regulated genes: GCLC
[11] = 10 μM, 24 hrs, WI-38, read-out: Expression of at least two NRF2 target genes
[12] = 10 μM, 24 hrs, WI-38 cells, qPCR, normalized to B2M, n = 4, read-out: GCLC expression, normalized fold change (NRF2-regulated gene)
[13] = 10 μM, 24 hrs, WI-38 cells, qPCR, normalized to B2M, n = 4, read-out: GSTM1 expression, normalized fold change (NRF2-regulated gene)
[14] = 10 μM, 24 hrs, WI-38 cells, qPCR, normalized to B2M, n = 4, read-out: HMOX1 expression, normalized fold change (NRF2-regulated gene)
[15] = WI-38 cells, 10 μM, 24 hrs, n=4, qPCR normalized by B2M, read-out: GCLC Normalized fold change
[16] = WI-38 cells, 10 μM, 24 hrs, n=4, qPCR normalized by B2M, read-out: GSTM1 Normalized fold change
[17] = WI-38 cells, 10 μM, 24 hrs, n=4, qPCR normalized by B2M, read-out: HMOX1 Normalized fold change
[18] = WI-38 cells, 10 μM, 24 hrs, n=4, qPCR normalized by B2M, read-out: NQO1 Normalized fold change

For `O=C(NCc1cccnc1)/C(=C/c1ccc(-c2ccc(Cl)cc2)o1)S(=O)(=O)c1ccccc1` [Gr-7C], the “Luminescence signal for ATP measurement, day-1 Average” value (“Luminescence signal … day-1 Average” below) [1] was 378655, the “Luminescence signal for ATP measurement, day-2 Average” value (“Luminescence signal … day-2 Average” for short) [1] was 140712 and the “Luminescence signal for ATP measurement, day-3 Average” value (from here on “Luminescence signal … day-3 Average”) [1] was 84446. For the same compound, the “Luminescence signal for ATP measurement, day-4 Average” value (from here on “Luminescence signal … day-4 Average”) [1] was 72490, the “Luminescence signal for ATP measurement, day-5 Average” value (from here on “Luminescence signal … day-5 Average”) [1] was 127440 and the viability at 10 µM [1] was 12.4%. For the same compound, the “O = Potential toxicity” value [1] was 0, the “Q = Potential toxicity” value [1] was 1 and the “FOXO3-dependency for H2O2-resistance, at 10 uM - with H2O2, 1st experiment” value ([2]; 10 uM, experiment 1 (1st), with H2O2) was 1st, YES;. For the same compound, the “FOXO3-dependency for H2O2-resistance, at 10 uM (experiment 3) - with & without H2O2” value ([2]; 10 uM) was “Partial”, the “FOXO3-dependency for H2O2-resistance (experiment 3)” value [2, 4] was “Partial” and the “FOXO3-dependency for H2O2-resistance, 1st experiment” value ([2]; 10 uM, with H2O2, FOXO3 knockdown in WI-38 cells, YES = resistance reduced by at least 50%, partial = 25% to 50%) was “YES;”. The “Assay 16: FOXO3-dependency for H2O2-resistance” value ([2]; 10 uM, YES/NO) was “YES”, the “Requirement of FOXO3 to promote H2O2-resistance” value ([2]; FOXO3 siRNA, at least 2 of 3 independent experiments) was “required FOXO3” and the “I = FOXO3-dependency for H2O2-resistance” value ([2]; score) was 1. For the same compound, the “I = FOXO3-dependency for H2O2-resistance” value ([2]; summary score) was 1, the “F = Potential NRF2 Activation” value ([3]; 2-point score) was 2 and the “Potential NRF2 Activation (>=2 target genes induced, by >=1.5-fold)” value [3] was “YES”. For the same compound, the fold induction at 10 µM [3, 5] was 2.27, the fold induction at 10 µM [3, 6] was 0.78 and the fold induction at 10 µM [3, 7] was 28.1. The fold induction at 10 µM [3, 8] was 28.1, the fold induction at 10 µM [3, 9] was 0.78 and the fold induction at 10 µM [3, 10] was 2.27. The fold induction at 10 µM [3, 11] was over 1.5, the fold induction at 10 µM [3, 12] was 2.27 and the fold induction at 10 µM [3, 13] was 0.78. It also gave a fold induction at 10 µM [3, 14] of 28.1, a fold induction at 10 µM [3, 15] of 2.27 and a fold induction at 10 µM [3, 16] of 0.784. For the same compound, the fold induction at 10 µM [3, 17] was 28, the fold induction at 10 µM [3, 18] was 0.811 and the “F = Potential NRF2 Activation” value ([3]; summary score) was 2.

With `Cc1cc(C)c(C(=O)/C=C/c2ccccc2F)c(O)n1` [O18] the “Luminescence signal … day-1 Average” value [1] was 453443, the “Luminescence signal … day-2 Average” value [1] was 639628 and the “Luminescence signal … day-3 Average” value [1] was 693776. The “Luminescence signal … day-4 Average” value [1] was 825623, the “Luminescence signal … day-5 Average” value [1] was 760275 and the viability at 10 µM [1] was 74%. For the same compound, the “O = Potential toxicity” value [1] was 0, the “Q = Potential toxicity” value [1] was 0 and the “FOXO3-dependency for H2O2-resistance, at 10 uM (experiment 3) - with & without H2O2” value ([2]; 10 uM) was “YES”. For the same compound, the “FOXO3-dependency for H2O2-resistance (experiment 3)” value [2, 4] was “YES”, the “I = FOXO3-dependency for H2O2-resistance” value ([2]; score) was 0 and the “I = FOXO3-dependency for H2O2-resistance” value ([2]; summary score) was 0. The “F = Potential NRF2 Activation” value ([3]; 2-point score) was 2, the “Potential NRF2 Activation (>=2 target genes induced, by >=1.5-fold)” value [3] was “YES” and the fold induction at 10 µM [3, 5] was 2.1. It also gave a fold induction at 10 µM [3, 6] of 1.52, a fold induction at 10 µM [3, 7] of 23.8 and a fold induction at 10 µM ([3]; 24 h, Assay 12(o), at 10 uM, qPCR, read-out: Induction of NRF2-regulated genes: NQO1 normalized fold-change) of 2.94. For the same compound, the fold induction at 10 µM [3, 8] was 23.8, the fold induction at 10 µM [3, 9] was 1.52 and the fold induction at 10 µM ([3]; rounded fold change, WI-38 cells, 10 μM, 24 hrs (RP29 for Gr-4D), read-out: Summary of effects on NRF2-regulated genes: NQO1) was 2.94. For the same compound, the fold induction at 10 µM [3, 10] was 2.1, the fold induction at 10 µM [3, 11] was over 1.5 and the fold induction at 10 µM [3, 12] was 2.1. For the same compound, the fold induction at 10 µM [3, 13] was 1.52, the fold induction at 10 µM [3, 14] was 23.8 and the fold induction at 10 µM ([3]; 10 μM, 24 hrs, WI-38 cells, qPCR, normalized to B2M, n = 4, read-out: NQO1 expression, normalized fold change (NRF2-regulated gene)) was 2.94. The fold induction at 10 µM [3, 15] was 2.1, the fold induction at 10 µM [3, 16] was 1.52 and the fold induction at 10 µM [3, 17] was 23.8. For the same compound, the fold induction at 10 µM [3, 18] was 2.94 and the “F = Potential NRF2 Activation” value ([3]; summary score) was 2.

`O=C(Nc1ccc(Cl)c(Cl)c1)c1ccc([N+](=O)[O-])o1` [Gr-1G] was tested, and the “Luminescence signal … day-1 Average” value [1] was 449436, the “Luminescence signal … day-2 Average” value [1] was 530748 and the “Luminescence signal … day-3 Average” value [1] was 651695. The “Luminescence signal … day-4 Average” value [1] was 866631, the “Luminescence signal … day-5 Average” value [1] was 955703 and the viability at 10 µM [1] was 93.1%. The “O = Potential toxicity” value [1] was 1, the “Q = Potential toxicity” value [1] was 0 and the “I = FOXO3-dependency for H2O2-resistance” value ([2]; score) was 0. For the same compound, the “I = FOXO3-dependency for H2O2-resistance” value ([2]; summary score) was 0, the “F = Potential NRF2 Activation” value ([3]; 2-point score) was 0 and the fold induction at 10 µM [3, 5] was 1.57. For the same compound, the fold induction at 10 µM [3, 7] was 0.5, the fold induction at 10 µM [3, 8] was 0.5 and the fold induction at 10 µM [3, 10] was 1.57. The fold induction at 10 µM [3, 12] was 1.57, the fold induction at 10 µM [3, 14] was 0.5 and the fold induction at 10 µM [3, 15] was 1.57. The fold induction at 10 µM [3, 16] was 0.948, the fold induction at 10 µM [3, 17] was 0.503 and the fold induction at 10 µM [3, 18] was 1.26. The “F = Potential NRF2 Activation” value ([3]; summary score) was 0.

Reference: patent US11413278B2, “Compounds and methods for promoting stress resistance” (priority 2015, dated 2022)
